The values below come from patent publication US20220112175A1, “PYRIDAZINES HERBICIDAL COMPOUNDS” (SYNGENTA CROP PROTECTION AG, priority 2019, published 2022).

What all share (experiment): Post-emergence efficacy, glasshouse pot test
Format in all cases: in vivo

For experiment [1], the system named is Digitaria sanguinalis (DIGSA). Particulars: 312 h, Application rate 500 g/Ha, post-emergence spray, evaluated after 13 days, read-out: Post-emergence efficacy DIGSA (100=total damage to plant; 0=no damage to plant). On the procedure:
(§1) Seeds of a variety of test species were sown in standard soil in pots. After cultivation for 14 days (post-emergence) under controlled conditions in a glasshouse (at 24/16° C., day/night; 14 hours light; 65% humidity), the plants were sprayed with an aqueous spray solution derived from the dissolution of the technical active ingredient formula (I) in a small amount of acetone and a special solvent and emulsifier mixture referred to as IF50 (11.12% Emulsogen EL360 TM+44.44% N-methylpyrrolidone+44.44% Dowanol DPM glycol ether), to create a 50 g/l solution which was then diluted to required concentration using 0.25% or 1% Empicol ESC70 (Sodium lauryl ether sulphate)+1% ammonium sulphate as diluent.
(§2) The test plants were then grown in a glasshouse under controlled conditions (at 24/16° C., day/night; 14 hours light; 65% humidity) and watered twice daily. After 13 days the test was evaluated (100=total damage to plant; 0=no damage to plant).
(§3) Ipomoea hederacea (IPOHE), Euphorbia heterophylla (EPHHL), Chenopodium album (CHEAL), Amaranthus palmeri (AMAPA), Lolium perenne (LOLPE), Digitaria sanguinalis (DIGSA), Eleusine indica (ELEIN), Echinochloa crus-galli (ECHCG), Setaria faberi (SETFA)

Experiment [2] concerns Ipomoea hederacea (IPOHE). The settings on record: 312 h, Application rate 500 g/Ha, post-emergence spray, evaluated after 13 days, read-out: Post-emergence efficacy IPOHE (100=total damage to plant; 0=no damage to plant). On the procedure: as §1, §2, §3
Experiment [3] has as its system Echinochloa crus-galli (ECHCG). The settings on record: 312 h, Application rate 500 g/Ha, post-emergence spray, evaluated after 13 days, read-out: Post-emergence efficacy ECHCG (100=total damage to plant; 0=no damage to plant). Here is the method:
as §1, §2, §3

For experiment [4], the system named is Amaranthus palmeri (AMAPA). Particulars: 312 h, Application rate 500 g/Ha, post-emergence spray, evaluated after 13 days, read-out: Post-emergence efficacy AMAPA (100=total damage to plant; 0=no damage to plant). On the procedure: as §1, §2, §3
Experiment [5] deals with Euphorbia heterophylla (EPHHL). The settings on record: 312 h, Application rate 500 g/Ha, post-emergence spray, evaluated after 13 days, read-out: Post-emergence efficacy EPHHL (100=total damage to plant; 0=no damage to plant). Here is the method:
as §1, §2, §3

In the next experiment the test system is Setaria faberi (SETFA). Particulars: 312 h, Application rate 500 g/Ha, post-emergence spray, evaluated after 13 days, read-out: Post-emergence efficacy SETFA (100=total damage to plant; 0=no damage to plant). Here is the method: as §1, §2, §3
For a further experiment, the system named is Lolium perenne (LOLPE). The settings on record: 312 h, Application rate 500 g/Ha, post-emergence spray, evaluated after 13 days, read-out: Post-emergence efficacy LOLPE (100=total damage to plant; 0=no damage to plant). Here is the method: as §1, §2, §3
The test system of another experiment is Eleusine indica (ELEIN). The settings on record: 312 h, Application rate 500 g/Ha, post-emergence spray, evaluated after 13 days, read-out: Post-emergence efficacy ELEIN (100=total damage to plant; 0=no damage to plant). Here is the method: as §1, §2, §3
Experiment [6] has as its system Chenopodium album (CHEAL). Particulars: 312 h, Application rate 500 g/Ha, post-emergence spray, evaluated after 13 days, read-out: Post-emergence efficacy CHEAL (100=total damage to plant; 0=no damage to plant). Here is the method: as §1, §2, §3

For the compound `CC(NC(=O)C[n+]1ccc(-c2nccs2)cn1)C(=O)O` (stereo not drawn) [Compound A10], the pest or weed control at 500 g/ha in experiment [1] worked out at 40%; in [2] it was 60%; in experiment [3], 60%; in [4], 100%; in [5] it was 90%; in the experiment with Setaria faberi (SETFA), 40%. In addition, the pest or weed control at 500 g/ha with Lolium perenne (LOLPE) came to 20%; in the experiment with Eleusine indica (ELEIN), 40%; in experiment [6], 90%.
In the case of `CN(CC(=O)O)C(=O)C[n+]1ccc(-c2nccs2)cn1` [Compound A11], the pest or weed control at 500 g/ha in [1] amounted to 40%; in [2], 20%; in [3], 50%; in [4], 90%; in experiment [5] it was 90%; in the experiment with Setaria faberi (SETFA), 50%. In addition, the pest or weed control at 500 g/ha is 30% in the experiment on Lolium perenne (LOLPE), 50% with Eleusine indica (ELEIN) and 20% in experiment [6].
On to `O=C(O)CNC(=O)C[n+]1ccc(-c2nccs2)cn1` [Compound A12], for which the pest or weed control at 500 g/ha in experiment [1] was 40%; in experiment [2], 70%; in experiment [3] it was 90%; in experiment [4], 100%; in experiment [5], 100%; in the experiment with Setaria faberi (SETFA), 50%. The pest or weed control at 500 g/ha with Lolium perenne (LOLPE) came out at 50%; in the experiment on Eleusine indica (ELEIN) it was 70%; in experiment [6], 90%.
`O=C(O)CNC(=O)CC[n+]1ccc(-c2ncco2)cn1` [Compound A13]: the pest or weed control at 500 g/ha came to 100% in experiment [1]; 60% in experiment [2]; 100% in [3]; 100% in [4]; 90% in [5]; 100% in the experiment on Setaria faberi (SETFA). The pest or weed control at 500 g/ha is 60% in the experiment on Lolium perenne (LOLPE), 90% in the experiment with Eleusine indica (ELEIN) and 100% in experiment [6].
For the compound `O=C(O)CNC(=O)CC[n+]1ccc(-c2nccs2)cn1` [Compound A14], the pest or weed control at 500 g/ha in experiment [1] turned out to be 100%; in experiment [2], 70%; in experiment [3], 100%; in experiment [4], 100%; in experiment [5], 100%; in the experiment on Setaria faberi (SETFA), 90%. For the same compound, the pest or weed control at 500 g/ha in the experiment with Lolium perenne (LOLPE) was determined as 50%; in the experiment on Eleusine indica (ELEIN), 100%; in experiment [6], 90%.
For `CC(C)(NC(=O)CC[n+]1ccc(-c2nccs2)cn1)C(=O)O` [Compound A15], the pest or weed control at 500 g/ha in experiment [1] was 100%; in experiment [2], 40%; in [3], 100%; in [4], 100%; in experiment [5], 50%; in the experiment with Setaria faberi (SETFA) it was 100%. Also, the pest or weed control at 500 g/ha in the experiment on Lolium perenne (LOLPE) worked out at 30%; in the experiment on Eleusine indica (ELEIN), 90%; in experiment [6], 100%.
Take `CC(NC(=O)CC[n+]1ccc(-c2nccs2)cn1)C(=O)O` (stereo not drawn) [Compound A16]: the pest or weed control at 500 g/ha came out at 100% in experiment [1]; 20% in experiment [2]; 100% in [3]; 100% in [4]; 40% in [5]; 100% in the experiment on Setaria faberi (SETFA). The pest or weed control at 500 g/ha in the experiment with Lolium perenne (LOLPE) turned out to be 60%; in the experiment on Eleusine indica (ELEIN), 100%; in experiment [6], 90%.
Consider `O=C(O)CNS(=O)(=O)CC[n+]1ccc(-c2nccs2)cn1` [Compound A17, 2-[2-(4-thiazol-2-ylpyridazin-1-ium-1-yl)ethylsulfonylamino]acetic acid 2,2,2-trifluoroacetate], for which the pest or weed control at 500 g/ha stood at 80% in experiment [1]; 10% in [2]; 20% in [3]; 0% in experiment [4]; 20% in [5]; 20% in the experiment with Setaria faberi (SETFA). Also, the pest or weed control at 500 g/ha in the experiment on Lolium perenne (LOLPE) was 0%; in the experiment on Eleusine indica (ELEIN), 10%; in experiment [6], 30%.
Consider `CC(C)(NS(=O)(=O)CC[n+]1ccc(-c2nccs2)cn1)C(=O)O` [Compound A18], for which the pest or weed control at 500 g/ha in experiment [1] was determined as 0%; in experiment [2], 0%; in experiment [3] it was 10%; in experiment [4] it was 30%; in [5], 10%; in the experiment with Setaria faberi (SETFA), 20%. Moreover, the pest or weed control at 500 g/ha came to 0% in the experiment with Lolium perenne (LOLPE), 0% with Eleusine indica (ELEIN) and 50% in experiment [6].
With `CC(NC(=O)C[n+]1ccc(-c2ncsn2)cn1)C(=O)O` (stereo not drawn) [Compound A19], the pest or weed control at 500 g/ha in [1] was 80%; in [2] it was 50%; in experiment [3], 80%; in experiment [4], 100%; in experiment [5], 90%; in the experiment on Setaria faberi (SETFA), 90%. In addition, the pest or weed control at 500 g/ha in the experiment with Lolium perenne (LOLPE) was 40%; with Eleusine indica (ELEIN), 80%; in experiment [6], 90%.
Take `CC(NC(=O)CC[n+]1ccc(-c2ncsn2)cn1)C(=O)O` (stereo not drawn) [Compound A20]: the pest or weed control at 500 g/ha was 100% in [1]; 60% in [2]; 100% in experiment [3]; 100% in experiment [4]; 80% in experiment [5]; 100% with Setaria faberi (SETFA). The pest or weed control at 500 g/ha in the experiment on Lolium perenne (LOLPE) amounted to 90%; in the experiment with Eleusine indica (ELEIN), 90%; in experiment [6], 100%.
As to `CC(C)(NC(=O)C[n+]1ccc(-c2ncsn2)cn1)C(=O)O` [Compound A21], the pest or weed control at 500 g/ha was 30% in experiment [1]; 70% in [2]; 30% in experiment [3]; 100% in [4]; 80% in experiment [5]; 100% in the experiment on Setaria faberi (SETFA). Besides, the pest or weed control at 500 g/ha in the experiment with Lolium perenne (LOLPE) was 40%; in the experiment on Eleusine indica (ELEIN), 40%; in [6] it was 90%.
As to `CC(NS(=O)(=O)CC[n+]1ccc(-c2ncsn2)cn1)C(=O)O` (stereo not drawn) [Compound A22], the pest or weed control at 500 g/ha turned out to be 100% in experiment [1]; 50% in experiment [2]; 80% in [3]; 100% in experiment [4]; 20% in experiment [5]; 100% in the experiment with Setaria faberi (SETFA). For the same compound, the pest or weed control at 500 g/ha in the experiment with Lolium perenne (LOLPE) is 60%; in the experiment on Eleusine indica (ELEIN) it was 100%; in experiment [6], 50%.
With `O=C(O)CNC(=O)C[n+]1ccc(-c2ncsn2)cn1` [Compound A23], the pest or weed control at 500 g/ha came out at 40% in experiment [1]; 90% in experiment [2]; 50% in experiment [3]; 100% in experiment [4]; 90% in [5]; 80% in the experiment with Setaria faberi (SETFA). In addition, the pest or weed control at 500 g/ha was found to be 50% in the experiment with Lolium perenne (LOLPE), 70% in the experiment with Eleusine indica (ELEIN) and 100% in [6].
